Assay results: patent US7534780B2, “Estradiol prodrugs” (Bayer Schering Pharma Aktiengesellschaft, priority 2004, dated 2009)

Tests used:
[1] = test system: erythrocytes; assay: Determination of the erythrocyte/plasma ratio of the substance; assay type: in vitro ADME; conditions: fresh blood; tracer use for compound 1 or 9, otherwise non-radioactive
Description: Determination of the substance concentration in the erythrocyte/plasma ratio (tracer use):
Fresh blood is incubated with a defined amount of tracer compound of compound 1 or 9. After the erythrocytes are separated, the measured radioactivity in the erythrocytes is put into a ratio with the measured radioactivity in the plasma.
Determination of the erythrocyte/plasma ratio (non-radioactive):
Freshly-obtained, heparinized blood is mixed with a defined amount of test substance. The concentration in the plasma obtained therefrom is measured. The erythrocyte/plasma ratio is calculated from the measured concentration of the total substance in the plasma and the concentration that is used.

[2] = Estradiol (E2) and estrone (E1) levels in plasma of rats after one-time oral administration; assay type: in vivo, rat
Description: (§1) Adult Wistar rats were ovariectomized 14 days after this operation for the study of the substances according to the invention. A treatment extended over 3 days (days 1-3); on day 4 after the animals were sacrificed, the recovery of plasma for hormone-analytical and clinical-chemical determinations and the determination of uterus weights were carried out. In satellite tests, correspondingly conditioned animals were sacrificed and samples were taken of their blood after one-time treatment and at other times (see Table 1 for determining estradiol and estrone in the plasma).

[3] = test system: erythrocytes; assay: Displacement of estradiol-3-sulfamate from the erythrocyte bond (relative binding affinity); parameters: species or system human; conditions: for RBA to Erythrocytes: human blood, displacement of 14C-labeled estradiol sulfamate; for bond to erythrocytes (in words): m-substituted versus p-substituted compounds
Description: The SO2—NTH2 group of the substances according to the invention can result in a concentration in erythrocytes by binding to carboanhydrases. The displacement of estradiol-3-sulfamate from the erythrocyte bond by test substances is measured.
Test preparation: Human blood is mixed with a mixture that consists of ^14C-labeled and unlabeled estradiol sulfamate. The erythrocytes are saturated at the selected working point, and the distribution in plasma/erythrocytes is 40:60. A second blood sample is mixed with a mixture that consists of ^14C-labeled estradiol sulfamate and unlabeled test substance. The relative binding affinity is calculated from the proportion of ^14C-labeled estradiol sulfamate in plasma: higher proportion=strong displacement of ^14C-estradiol sulfamate from the erythrocytes by the test substance=high binding affinity of the test substances to the erythrocytes.

[4] = test system: ovariectomized rats; assay: Induction of uterus growth in ovariectomized rats, oral treatment days 1-3; assay type: in vivo, rat; conditions: oral administration
Description: as §1
In FIG. 1, the induction of uterus growth in ovariectomized rats is depicted. The treatment is carried out orally from day 1 to the 3rd day, and then the autopsy is carried out on the 4th day. A maximum uterus growth predominantly at 30 μg/animal/day is shown.

[5] = target: Human Carboanhydrase I (Homo sapiens, UniProt P00915); assay: Inhibition of carboanhydrase I (CO2 hydration); assay type: biochemical; conditions: read-out: CAI IC50
Description: Test preparation: A constant CO2 stream is directed by a buffer that was mixed with carboanhydrase I. The time that is required to reduce the pH within defined limits is a measuring parameter. This parameter reflects the formation of H2CO3 in the medium. IC50 inhibiting values are determined by test substances being pipetted into the test preparation.

[6] = test system: angiotensinogen; assay: Liver estrogeneity (marker angiotensinogen) in ovariectomized rats; assay type: in vivo, rat; conditions: oral administration
Description: as §1

Chain of Human Carboanhydrase I (P00915 whole entry): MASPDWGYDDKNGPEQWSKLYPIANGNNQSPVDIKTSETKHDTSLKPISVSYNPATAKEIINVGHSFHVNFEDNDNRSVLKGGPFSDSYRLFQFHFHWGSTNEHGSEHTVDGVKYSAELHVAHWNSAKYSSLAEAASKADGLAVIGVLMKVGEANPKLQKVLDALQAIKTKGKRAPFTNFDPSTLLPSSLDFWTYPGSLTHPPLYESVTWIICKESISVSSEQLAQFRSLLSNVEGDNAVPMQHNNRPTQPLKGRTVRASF

SMILES | Distribution Ratio of the Substance to Erythrocytes/Plasma [1] | oral availability and estrogeneity compared with the p-substituted compound (in words) [2] | increase of mother estrogen (estradiol) on oral administration (in words) ([2]; rats) | RBA to Erythrocytes [3] | bond to erythrocytes (in words) [3] | estrogenic activity in the uterus / uterus growth (in words) [4] | IC50 [5] [µM] | hepatic estrogenic action, marker angiotensinogen (in words) [6]
C[C@]12CC[C@@H]3c4ccc(O)cc4CC[C@H]3[C@@H]1CC[C@@H]2OC(=O)c1cccc(S(N)(=O)=O)c1 [Compound 9, 3-Hydroxyestra-1,3,5(10)-trien-17β-yl 3′-sulfamoylbenzoate] | 4 | higher oral availability and estrogeneity | very strong increase | 0.18 | weaker bonds | enhanced in comparison to estradiol | 0.38 | –
C[C@]12CC[C@@H]3c4ccc(OS(N)(=O)=O)cc4CC[C@H]3[C@@H]1CC[C@@H]2O [Estradiol-3-sulfamate, reference compound] | 49 | – | – | 100 | – | – | 0.157 ± 0.0106 | –
C#C[C@]1(O)CC[C@H]2[C@@H]3CCc4cc(O)ccc4[C@H]3CC[C@@]21C [ethinyl estradiol, 17α-ethinyl estradiol, reference compound] | – | – | – | – | – | – | – | significant increase in angiotensinogen
C[C@]12CC[C@@H]3c4ccc(O)cc4CC[C@H]3[C@@H]1CC[C@@H]2OC(=O)c1cc(S(N)(=O)=O)c(Cl)cc1Cl [Compound 7, 3-Hydroxyestra-1,3,5(10)-trien-17β-yl 2′,4′-dichloro-5′-sulfamoylbenzoate] | 5 | – | – | 0.40 | weaker bonds | – | 0.5 | –
C[C@]12CC[C@@H]3c4ccc(O)cc4CC[C@H]3[C@@H]1CC[C@@H]2OC(=O)c1ccc(S(N)(=O)=O)cc1 [Compound 1, 3-Hydroxyestra-1,3,5(10)-trien-17β-yl 4′-sulfamoylbenzoate] | 7.7 | – | – | 32 | very strong bond | superior action on the uterus growth | 0.19 | much lesser action on estrogen-modulated liver functions
